Laboratory results published in publication PMC10619556, “Comprehensive Evaluation System for Post-Metabolic Activity of Potential Thyroid-Disrupting Chemicals” (Journal of Microbiology and Biotechnology, 2023).
Structures can show the parent of a compound that is named as a salt. Where two headings read alike, the source gives them in different places.

Assays:
[1] = Sprague-Dawley, rat, pH 7.4
[2] = tested on: thyroid hormone receptor (THR); test: hTRE_HeLa THR transcriptional activity (nano luciferase reporter) assay with rat liver S9 mixtures; format: cell-based, human; conditions: hTRE_HeLa cells; for THR agonist classification (positive if >= 10% of activity of 100 nM T3): parent, inactive S9, phase I and phase I+II groups, before and after S9 reaction; for THR transcriptional activity after phase I+II reaction: phase I+II group
Protocol: The hTRE_HeLa cell line, obtained from the MFDS, was used to detect thyroid hormone receptor (THR) agonists through transcriptional activation analysis, utilizing a stably modified thyroid receptor-reactive human cervical cancer cell line along with one plasmid from a nano luciferase reporter. For cell line maintenance, minimum essential media (MEM, Gibco, USA) supplemented with 10% FBS, 1% penicillin/streptomycin (P/S), and 1 ml Hygromycin B (InvivoGen, USA) was used. The hTRE_Hela cell line was conditioned and treated in test medium containing Phenol red free of MEM (Gibco) supplemented with 10% charcoal-stripped FBS (CS-FBS), 1% P/S, and 1 mL Hygromycin B. hTRE_HeLa cells were maintained in 37°C and 5% CO2 incubator. hTRE_HeLa cells were seeded with 5 × 10^3 cells per well in the 96-well plate for 24 h and treated with EDCs and S9 mixtures for 48 h.
The S9 mixture for phase I metabolism was prepared with 0.1 mg/ml rat liver S9, 2 × 10^-3 M NADPH, 3 × 10^-2 M G-6-P, 5 × 10^-2 M MgCl2, and 3 units/ml G-6-PD. For phase I+II metabolism, 2 × 10^-2 M GSH, 5 × 10^-3 M UDPGA, and 2 × 10^-5 M PAPS were additionally included to the S9 mixture. […] The S9 mixtures were added to the aforementioned test medium to be diluted 10 times. After 24 h of seeding, hTRE_HeLa cells were treated with the S9 mixtures pre-incubated for 6 h and EDCs with different concentrations.
The vehicle control (VC) included only 0.145% of DMSO containing 9 × 10^-12 M 9-cis-Retinoic acid. The final volume for each well was 100 μl. […] After treatment, 10 μl of treated medium was transferred to a new plate, to which 40 μl of test medium and 50 μl of Nano-Glo luciferase reagent (Promega, USA) were added. After a 10 min incubation, the luciferase activity was measured using a luminescence reader (Glomax Discover, Promega). For data analysis, relative transcriptional activity (RTA) of PC was set to 100%, and RTA of VCcontrol was set to 0%. The % to PC value of EDCs was calculated to (EDCs – VCtest) / (PC – VCcontrol). The VCtest was set to the VC for each test group. If the EDC was greater than or equal to 10% of PC, the EDC was determined to be a THR agonist-positive chemical. The data were described by the mean ± standard deviation.

[3] = In vitro metabolic reaction using rat liver S9 fraction with LC-MS / GC-MS metabolic profiling; conditions: for Metabollic rate: rat liver S9, phase I+II reaction vs inactivated S9 control, BDE28 and 4,4'-DIDBP by GC-MS, others by LC-MS; for Metabolic rate (parent decreased by) after the reaction: rat liver S9, phase I+II biotransformation
[4] = concentration not given, RTA with 100 nM T3 (PC) = 100%

For Cc1cc(C(C#N)c2ccc(Cl)cc2)c(Cl)cc1NC(=O)c1cc(I)cc(I)c1O (centres unmarked) [Closantel, closantel], the Metabollic rate [1] was 49% and the “THR agonist classification (positive if >= 10% of activity of 100 nM T3)” value [2] was “THR agonistic negative”.
With COc1c(O)cc2oc(-c3ccc(O)cc3)cc(=O)c2c1O [Hispidulin, hispidulin] the “THR agonist classification (positive if >= 10% of activity of 100 nM T3)” value [2] was “THR agonistic negative”.
For CC12CC1(C)C(=O)N(c1cc(Cl)cc(Cl)c1)C2=O (centres unmarked) [Procymidone, procymidone], the Metabollic rate [1] was 55% and the “THR agonist classification (positive if >= 10% of activity of 100 nM T3)” value [2] was “THR agonistic negative”.
In the case of Brc1ccc(Oc2ccc(Br)cc2Br)cc1 [BDE28, BDE No. 28], the “THR agonist classification (positive if >= 10% of activity of 100 nM T3)” value [2] is reported as “THR agonistic negative” and the Metabollic rate [3] is reported as 99%.
In the case of O=C(Nc1ccc(Oc2ccc(Cl)cc2)c(Cl)c1)c1cc(I)cc(I)c1O [Rafoxanide, rafoxanide], the “THR agonist classification (positive if >= 10% of activity of 100 nM T3)” value [2] is reported as “THR agonistic negative” and the Metabollic rate [3] is reported as 51%.
With O=C(O)CCc1cc(I)c(Oc2ccc(O)cc2)c(I)c1 [DITPA, 3,5-diiodothyropropionic acid] the “THR agonist classification (positive if >= 10% of activity of 100 nM T3)” value [2] was “THR agonistic positive”, the “THR transcriptional activity after phase I+II reaction” value [2, 4] was 30.7 ± 1.8% and the “Metabolic rate (parent decreased by) after the reaction” value [3] was 29%.
For N[C@@H](Cc1cc(I)c(Oc2ccc(O)c(I)c2)c(I)c1)C(=O)O [T3, 3,3’,5-triiodo-L-thyronine], the “Induction compared to the VC value” ([2]; T3 100 nM as positive control) was ≥ 4.8 fold, the “THR agonist classification (positive if >= 10% of activity of 100 nM T3)” value [2] was “THR agonistic positive” and the “Metabolic rate (parent decreased by) after the reaction” value [3] was 3%.
With O=C(c1ccc(O)cc1O)c1ccc(O)cc1O [BP-2, 2,2',4,4'-tetrahydroxybenzophenone] the “THR agonist classification (positive if >= 10% of activity of 100 nM T3)” value [2] was “THR agonistic negative” and the Metabollic rate [3] was 11%.
In the case of N[C@@H](Cc1cc(I)c(Oc2cc(I)c(O)c(I)c2)c(I)c1)C(=O)O [T4, Levothyroxine], the “THR agonist classification (positive if >= 10% of activity of 100 nM T3)” value [2] is reported as “THR agonistic positive”.
With CC(C)(c1ccc(O)cc1)c1ccc(O)cc1 [BPA, bisphenol A] the Metabollic rate [1] was 52% and the “THR agonist classification (positive if >= 10% of activity of 100 nM T3)” value [2] was “THR agonistic negative”.
For Ic1ccc(-c2ccc(I)cc2)cc1 [4,4’-DIDBP, 4,4'-diiodobiphenyl], the Metabollic rate [1] was 82% and the “THR agonist classification (positive if >= 10% of activity of 100 nM T3)” value [2] was “THR agonistic negative”.
In the case of C[C@]12CC[C@@H]3c4ccc(O)cc4CC[C@H]3[C@@H]1CC[C@@H]2O [E2, 17β-estradiol], the “THR agonist classification (positive if >= 10% of activity of 100 nM T3)” value [2] is reported as “THR agonistic negative” and the Metabollic rate [3] is reported as 44%.
In the case of CCCCc1oc2ccccc2c1C(=O)c1cc(I)c(OCCN(CC)CC)c(I)c1 [Amiodarone, amiodarone hydrochloride], the “THR agonist classification (positive if >= 10% of activity of 100 nM T3)” value [2] is reported as “THR agonistic negative”.
For Cc1cc(OCC(=O)O)cc(C)c1Cc1ccc(O)c(C(C)C)c1 [GC-1, sobetirome], the “THR agonist classification (positive if >= 10% of activity of 100 nM T3)” value [2] was “THR agonistic positive”, the “THR transcriptional activity after phase I reaction” value ([2]; phase I group, concentration not given, RTA with 100 nM T3 (PC) = 100%) was 166.3 ± 12.0% and the “THR transcriptional activity after phase I+II reaction” value [2, 4] was 160.6 ± 8.6%. For the same molecule, the “Metabolic rate (parent decreased by) after the reaction” value [3] was 15%.
